Reference: article PMC9454457 (Journal of Nuclear Medicine, 2022)
Where two headings read alike, the source gives them in different places. Blank lines part the entries; values can stand above or below the compound they belong to.

Key:
GRPR [1] = target: T1, GRPR (Homo sapiens, UniProt P30550); assay: Competitive binding (IC50) on PC-3 cells vs 3-125I-D-Tyr6-MJ9; details: 2 h, room temperature, 3-125I-D-Tyr6-MJ9 0.2 nM/well, n = 3
T1 construct: endogenous in cells; host or cells: PC-3 cells
Method: Competitive binding studies were performed on both PC-3 and T-47D cells (1.5 × 10^5 cells in 1 mL/well) via incubation at room temperature for 2 h using 3-^125I-D-Tyr^6-MJ9 (0.2 nM/well) as a radiolabeled reference (n = 3). Internalization studies of the ^177Lu-labeled conjugates (1.0 nM/well) were performed on PC-3 cells (1.5 × 10^5 cells in 1 mL/well) at 37°C for 1 h (n = 6). Data were corrected for nonspecific binding (competition by 10^−3 M ^natLu-RM2).
(§1) FIGURE 2. Preclinical data of ^nat/177Lu-RM2 (red), ^nat/177Lu-NeoBOMB1 (gray), ^nat/177Lu-AMTG (green), and ^nat/177Lu-AMTG2 (blue). (A) Affinity data on PC-3 and T-47D cells (1.5 × 10^5 cells/mL/well) using 3-^125I-D-Tyr^6-MJ9 (0.2 nM/well) as radiolabeled reference (2 h, room temperature, Hanks’ balanced salt solution plus 1% bovine serum albumin [v/v]). (B) GRPR-mediated internalization (0.25 pmol/well) on PC-3 cells as percentage of applied activity (incubation at 37°C for 1 h, Dulbecco modified Eagle medium/F-12 plus 5% bovine serum albumin [v/v], 1.5 × 10^5 cells/mL/well). Data were corrected for nonspecific binding (10^−3 M ^natLu-RM2). (C) Lipophilicity at pH 7.4 (logD7.4). (D) Metabolic stability in vitro in human plasma (left) (37°C, 72 ± 2 h; n = 4), and metabolic stability in vivo in murine plasma (middle) and murine urine (right) at 30 min after injection (n = 3). Data are expressed as mean ± SD.

GRPR [2] = target: T1, GRPR; design: method as in PMID 19671861, PMID 17262215; details: 1 h in vitro; cited from earlier work
[3] = In vitro metabolic stability in human plasma; assay type: in vitro ADME; details: 37°C, 72 ± 2 h, n = 4
Method: Metabolic stability in vitro was determined through a procedure published by Linder et al. that was slightly modified ([16]). Immediately after labeling, 200 μL of human plasma were added and the mixture was incubated at 37°C for 72 ± 2 h. Proteins were precipitated by treatment with ice-cold EtOH (150 μL) and ice-cold MeCN (450 μL), followed by centrifugation (13,000 rpm, 20 min). The supernatants were decanted and further centrifuged (13,000 rpm, 10 min) using a Costar Spin-X (Corning) centrifuge tube filter (0.45 μm). The filtrated plasma samples were analyzed using radio–RP-HPLC.
as §1

[4] = In vivo metabolic stability in murine plasma and urine; design: species or system CB17-SCID mice; details: 30 min after injection, n = 3
Method: Approximately 30–40 MBq (1 nmol, 150 μL) of the ^177Lu-labeled compounds were injected into the tail vein of anesthetized CB17-SCID mice (n = 3). After euthanasia at 30 min after injection, blood and urine samples were collected. Blood proteins were precipitated by treatment with ice-cold MeCN (v/v = 1/1), followed by centrifugation (13,000 rpm, 20 min). The supernatants were decanted and further centrifuged (13,000 rpm, 10 min) using a Costar Spin-X centrifuge tube filter (0.45 μm). The filtrated plasma samples and the urine samples were analyzed using radio–RP-HPLC.
as §1

[5] = Lipophilicity, n-octanol-PBS distribution coefficient (logD7.4); assay type: physicochemical; details: n-octanol/PBS pH 7.4
Method: Approximately 1 MBq of the ^177Lu-labeled compound was dissolved in 1 mL of phosphate-buffered saline (pH 7.4) and n-octanol (v/v = 1/1). After stirring for 3 min at room temperature in a vortex mixer and subsequent centrifugation at 9,000 rpm for 5 min (Biofuge 15; Heraeus Sepatech GmbH), 200-μL aliquots of both layers were measured separately in a γ-counter. The experiment was repeated at least 5 times.

[6] = 30 min after injection; cited from earlier work
[7] = Biodistribution in PC-3 tumor-bearing CB17-SCID mice; assay type: in vivo
Method: A detailed description of tumor inoculation is provided in the supplemental materials. Approximately 2–5 MBq (100 pmol, 150 μL) of the ^177Lu-labeled GRPR ligands were injected into the tail vein of anesthetized (2% isoflurane) PC-3 tumor–bearing mice (biodistribution, n = 4; imaging, n = 1).
For biodistribution studies, organs were removed, weighed, and measured in a γ-counter (Perkin Elmer) after euthanasia at 24 h after injection.
For all competition studies, 3.62 mg/kg (40 nmol) of ^natLu-RM2 (10^−3 M in phosphate-buffered saline) were coadministered.

T1 sequence (P30550 whole entry): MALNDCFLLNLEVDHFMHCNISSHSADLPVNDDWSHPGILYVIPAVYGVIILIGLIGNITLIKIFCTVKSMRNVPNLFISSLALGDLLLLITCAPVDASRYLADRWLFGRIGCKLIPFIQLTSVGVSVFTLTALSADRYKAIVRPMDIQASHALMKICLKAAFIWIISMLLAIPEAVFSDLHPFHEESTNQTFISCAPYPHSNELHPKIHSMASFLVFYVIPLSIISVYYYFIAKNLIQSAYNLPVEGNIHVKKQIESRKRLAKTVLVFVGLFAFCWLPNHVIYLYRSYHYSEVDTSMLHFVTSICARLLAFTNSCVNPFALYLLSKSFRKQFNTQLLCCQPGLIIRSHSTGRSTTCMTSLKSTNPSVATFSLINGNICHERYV

IC50 (GRPR [1]): 1.3 ± 0.4 nM
Compound: CC(C)C[C@H](NC(=O)C[C@H](O)[C@H](CC(C)C)NC(=O)[C@H](Cc1c[nH]cn1)NC(=O)CNC(=O)[C@@H](NC(=O)[C@H](C)NC(=O)[C@H](Cc1c[nH]c2ccccc12)NC(=O)[C@H](CCC(N)=O)NC(=O)[C@@H](Cc1ccc(O)c(I)c1)NC(=O)CN1CCC(N)CC1)C(C)C)C(N)=O [cold counterpart of 3-^125I-D-Tyr^6-MJ9]

Compound: DOTA-4-aminobenzoyl-Gln^7- Trp^8-Ala^9- Val^10- Gly^11- His^12- Leu^13-Met^14-NH2 [AMBA]
Internalization rates (GRPR [2]): more than 25%

Compound: CC(C)CC(CC(C)C)NC(=O)[C@H](Cc1cnc[nH]1)NC(=O)CNC(=O)[C@@H](NC(=O)[C@H](C)NC(=O)[C@H](Cc1c[nH]c2ccccc12)NC(=O)[C@H](CCC(N)=O)NC(=O)[C@@H](Cc1ccccc1)NC(=O)COCC(=O)Nc1ccc(CNC(=O)CN2CCN(CC(=O)O)CCN(CC(=O)O)CCN(CC(=O)O)CC2)cc1)C(C)C [^177Lu-NeoBOMB1, metal not drawn, reference compound]
Intact compound in human plasma in vitro [3]: 61.9% ± 2.1%
Intact tracer in murine plasma in vivo [4]: 75.9% ± 0.6%
Intact tracer in murine urine in vivo [4]: 3.9% ± 1.3%
logD [5]: -0.57 ± 0.03
Fraction of intact tracer in murine blood [6]: 90%
tissue uptake at 24 h ([7]; CB17-SCID, mouse, blood, intravenous, total radioactivity; 24 h after injection, 100 pmol, n = 4; read-out: Biodistribution, Blood): 0.057 ± 0.027 %ID/g
tissue uptake at 24 h ([7]; CB17-SCID, mouse, heart, intravenous, total radioactivity; 24 h after injection, 100 pmol, n = 4; read-out: Biodistribution, Heart): 0.1 ± 0.03 %ID/g
tissue uptake at 24 h ([7]; CB17-SCID, mouse, intestine, intravenous, total radioactivity; 24 h after injection, 100 pmol, n = 4; read-out: Biodistribution, Intestine): 0.85 ± 0.05 %ID/g
tissue uptake at 24 h ([7]; CB17-SCID, mouse, kidney, intravenous, total radioactivity; 24 h after injection, 100 pmol, n = 4; read-out: Biodistribution, Kidney): 1.9 ± 0.72 %ID/g
tissue uptake at 24 h ([7]; CB17-SCID, mouse, liver, intravenous, total radioactivity; 24 h after injection, 100 pmol, n = 4; read-out: Biodistribution, Liver): 1.6 ± 0.62 %ID/g
tissue uptake at 24 h ([7]; CB17-SCID, mouse, lung, intravenous, total radioactivity; 24 h after injection, 100 pmol, n = 4; read-out: Biodistribution, Lung): 0.43 %ID/g
tissue uptake at 24 h ([7]; CB17-SCID, mouse, muscle, intravenous, total radioactivity; 24 h after injection, 100 pmol, n = 4; read-out: Biodistribution, Muscle): 0.01 ± 0.005 %ID/g
tissue uptake at 24 h ([7]; CB17-SCID, mouse, pancreas, intravenous, total radioactivity; 24 h after injection, 100 pmol, n = 4; read-out: Biodistribution, Pancreas): 8.48 ± 0.92 %ID/g
tissue uptake at 24 h ([7]; CB17-SCID, mouse, spleen, intravenous, total radioactivity; 24 h after injection, 100 pmol, n = 4; read-out: Biodistribution, Spleen): 1.94 ± 0.97 %ID/g
tissue uptake at 24 h ([7]; CB17-SCID, mouse, stomach, intravenous, total radioactivity; 24 h after injection, 100 pmol, n = 4; read-out: Biodistribution, Stomach): 1.29 ± 0.12 %ID/g
tissue uptake at 24 h ([7]; CB17-SCID, mouse, tumor (PC-3), intravenous, total radioactivity; PC-3 tumor, 24 h after injection, 100 pmol, n = 4; read-out: Biodistribution, Tumor): 7.23 ± 0.91 %ID/g

Intact compound in human plasma in vitro [3]: 38.7% ± 9.3%
Intact tracer in murine plasma in vivo [4]: 11.4% ± 3.7%
Intact tracer in murine urine in vivo [4]: 0.5% ± 0.1%
tissue uptake at 24 h ([7]; CB17-SCID, mouse, adrenal, intravenous, 100 pmol, total radioactivity, 24 h after injection, 100 pmol, n = 4; read-out: Biodistribution, Adrenal): 0.8 ± 0.16 %ID/g
tissue uptake at 24 h ([7]; CB17-SCID, mouse, blood, intravenous, 100 pmol, total radioactivity, 24 h after injection, 100 pmol, n = 4; read-out: Biodistribution, Blood): 0.012 ± 0.001 %ID/g
tissue uptake at 24 h ([7]; CB17-SCID, mouse, bone, intravenous, 100 pmol, total radioactivity, 24 h after injection, 100 pmol, n = 4; read-out: Biodistribution, Bone): 1.31 ± 0.56 %ID/g
tissue uptake at 24 h ([7]; CB17-SCID, mouse, kidney, intravenous, 100 pmol, total radioactivity, 24 h after injection, 100 pmol, n = 4; read-out: Biodistribution, Kidney): 1.79 ± 0.05 %ID/g
tissue uptake at 24 h ([7]; CB17-SCID, mouse, liver, intravenous, 100 pmol, total radioactivity, 24 h after injection, 100 pmol, n = 4; read-out: Biodistribution, Liver): 0.45 ± 0.03 %ID/g
tissue uptake at 24 h ([7]; CB17-SCID, mouse, muscle, intravenous, 100 pmol, total radioactivity, 24 h after injection, 100 pmol, n = 4; read-out: Biodistribution, Muscle): 0.011 ± 0.011 %ID/g
tissue uptake at 24 h ([7]; CB17-SCID, mouse, pancreas, intravenous, 100 pmol, total radioactivity, 24 h after injection, 100 pmol, n = 4; read-out: Biodistribution, Pancreas): 0.43 ± 0.06 %ID/g
tissue uptake at 24 h ([7]; CB17-SCID, mouse, tumor (PC-3), intravenous, 100 pmol, total radioactivity, PC-3 tumor, 24 h after injection, 100 pmol, n = 4; read-out: Biodistribution, Tumor): 8.45 ± 0.19 %ID/g
Compound: CC(C)C[C@H](NC(=O)C[C@H](O)[C@H](CC(C)C)NC(=O)[C@H](Cc1c[nH]cn1)NC(=O)CNC(=O)[C@@H](NC(=O)[C@H](C)NC(=O)[C@H](Cc1c[nH]c2ccccc12)NC(=O)[C@H](CCC(N)=O)NC(=O)[C@@H](Cc1ccccc1)NC(=O)CN1CCC(NC(=O)CN2CCN(CC(=O)O)CCN(CC(=O)O)CCN(CC(=O)O)CC2)CC1)C(C)C)C(N)=O [^177Lu-RM2, metal not drawn, reference compound]
